IC50 data for 7 molecules are collected here from patent publication US20240343728A1, “COMPOUNDS THAT INHIBIT PI3K ISOFORM ALPHA AND METHODS FOR TREATING CANCER” (Scorpion Therapeutics, Inc., priority 2021, published 2024).

The subject of this assay is T47D pAKT. Nature of the assay: Homogenous Time-Resolved Fluorescence (HTRF) Assay pAKT-T47D. In kind it is cell-based. Conditions: Homo sapiens; T47D.1 cell line, PI3Kα H1047R mutation present, HTRF detection pAKT (S473), timepoint 1 hour. The method, then:
Homogenous Time-Resolved Fluorescence (HTRF) Assay—pAKT-T47D
Compounds were assayed using homogeneous time-resolved fluorescence (HTRF).
Gibco RPMI 1640 Medium, no phenol red; Gibco RPMI 1640 Medium; Gibco Trypsin-EDTA (0.5%), no phenol red; Gibco DPBS; Trypan blue solution 0.4% (Corning); Avantor Seradigm Premium Grade Fetal Bovine Serum (FBS); Greiner 784080-384 well TC treated white plates; pAKT (Ser473) HTRF; Gibco Insulin, human recombinant, zinc solution; Gibco Recovery Cell Culture Freezing Medium; Countess II FL Automated Cell Counter (ThermoFisher); Countess II Slides (ThermoFisher); Microscope; and PHERAstar FSX Microplate Reader (BMG LABTECH, Inc.).
The scinamic cell line ID was T47D.1, the HTRF detection was pAKT (S473), a PI3Kα H1047R mutation was present, the seeding density was 5000, the timepoint was 1 hour, and the medium used was RPMI+10% FBS (no phenol red)+0.2 units/ml bovine insulin.
The procedure was as follows: • 1. Prepared ARP: • a. Stamped 12.5 nL from 10 mM source plate to destination plate using Echo. Sealed plate immediately and froze at −20° C. if it was not used on the same day. • b. If a frozen ARP was used, the plate was thawed and spun at 1000 rpm×1 min. • 2. Preparation of cells (adherent): • a. Aspirated media from cells. Washed cells with sterile 1×PBS. Aspirated PBS and added appropriate amount of Trypsin. • b. Once cells were fully trypsinized, added appropriate media to resuspend cells. Transferred cells to a 15 mL or 50 mL conical tube. • c. Counted cells on the Countess II Cell Counter. • 3. Plating of cells: • a. Prepared cells at appropriate plating density. Dispensed 12 μL of diluted cells per well of a Greiner 784080-384 well TC treated white plate using a Multidrop Combi to columns 1-23. Added 12 uL of appropriate phenol free media only to column 24. • b. Placed plates in 37° C. tissue culture incubator for appropriate treatment time (refer to “Assay” table). • 4. Prepared HTRF Lysis Buffer • a. Calculate the amount of HTRF lysis buffer master mix needed to perform the desired experiments plus any extra dead volume required for dispensing (4 μL required per well). Dilute the Blocking Reagent into 4× Lysis Buffer at a ratio of 1:25 (i.e. 0.1 mL Blocking Reagent Solution plus 2.4 mL 4× Lysis Buffer). • b. Add 4 uL Lysis buffer master mix to all wells with sample or DMSO. Centrifuge the plates for 1 minute at 1000 rpm. • c. Incubate at room temperature for 30 minutes. • 5. Prepared HTRF Antibody • a. Calculated the amount of HTRF antibody master mix needed to perform the desired experiments plus any extra dead volume required for dispensing ([…]). Eu Cryptate antibody and d2 antibody were added to detection buffer each at a ratio of 1:40 (i.e. 100 μL Eu Cryptate+100 μL d2 Cryptate+3800 μL detection buffer). • b. 4 μL of antibody master mix was added to each well including the media only column 24. • c. Centrifuged the plates for 1 minute at 1000 rpm. Placed lid on and created a “humidity chamber” by placing the plates into a ziplock bag with wet paper towels or something similar and incubated overnight at room temperature, keeping away from light.
• 6. Measured on the PHERAstar/Envision using the HTRF protocol. When plates were read, all wells were read.
Background: TR-FRET usually uses a lanthanide donor and a delayed reading to cut background.

Each structure is given as a SMILES string.

A word on the IC50: it is the concentration at which inhibition is half-maximal. Lower therefore signals higher potency. `Cc1c([C@H](Nc2nc3nc(N)ncc3[nH]2)C(F)(F)F)oc2ccc(F)cc12` [Compound 7b, (S)-N^8-(2,2,2-trifluoro-1-(5-fluoro-3-methylbenzofuran-2-yl)ethyl)-7H-purine-2,8-diamine] displayed an IC50 of 200 to 500 nM.
With `Cc1c([C@@H](Nc2nc3ccc(C#N)cc3[nH]2)C(C)C)oc2ccc(F)cc12` [Compound 1, (S)-2-((1-(5-fluoro-3-methylbenzofuran-2-yl)-2-methylpropyl)amino)-1H-benzo[d]imidazole-6-carbonitrile], the IC50 was ≥ 500 nM.
The molecule `Cc1c([C@@H](Nc2nc3cc(S(C)(=O)=O)cnc3[nH]2)C(F)(F)F)oc2ccc(F)cc12` [Compound 5a, (R)-6-(methylsulfonyl)-N-(2,2,2-trifluoro-1-(5-fluoro-3-methylbenzofuran-2-yl)ethyl)-3H-imidazo[4,5-b]pyridin-2-amine] came in with an IC50 of 200 to 500 nM.
The same measure for `Cc1c([C@@H](Nc2nc3ccc(S(C)(=O)=O)cc3[nH]2)C(C)C)oc2ccc(F)cc12` [Compound 4, (S)-N-(1-(5-fluoro-3-methylbenzofuran-2-yl)-2-methylpropyl)-6-(methylsulfonyl)-1H-benzo[d]imidazol-2-amine]: < 200 nM; for `Cc1c(C(Nc2nc3cc(S(C)(=O)=O)ccc3[nH]2)C(F)(F)F)oc2ccc(F)cc12` (racemic) [Compound 6b, 5-(methylsulfonyl)-N-(2,2,2-trifluoro-1-(5-fluoro-3-methylbenzofuran-2-yl)ethyl)-1H-benzo[d]imidazol-2-amine]: 200 to 500 nM.
For `Cc1c([C@@H](Nc2nc3ccc(C(N)=O)cc3[nH]2)C(C)C)oc2ccc(F)cc12` [Compound 2, (S)-2-((1-(5-fluoro-3-methylbenzofuran-2-yl)-2-methylpropyl)amino)-1H-benzo[d]imidazole-6-carboxamide] the value was 200 to 500 nM; for `Cc1c([C@@H](Nc2nc3ccc(S(N)(=O)=O)cc3[nH]2)C(C)C)oc2ccc(F)cc12` [Compound 3, (S)-2-((1-(5-fluoro-3-methylbenzofuran-2-yl)-2-methylpropyl)amino)-1H-benzo[d]imidazole-6-sulfonamide], < 200 nM.
